Laboratory results as given in US20240383856A1 (Zedira GmbH, priority 2021, published 2024).

What was measured:
[1] = logD by shake flask method (octanol / PBS pH 7.4, HPLC); format: physicochemical; settings: octanol / PBS pH 7.4, shake flask
Method in brief: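 LogD obtained by HPLC measurement of how the compound distributes between PBS (pH 7.4) and octanol in a shake-flask experiment.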

[2] = biological target: T1, recombinant human transglutaminase 2 (Homo sapiens, UniProt P21980); test: Transglutaminase assay (DCC-assay): incorporation of dansylcadaverine into dimethylcasein; format: biochemical; settings: recombinant human TG2 10 nM; dansylcadaverine incorporation into dimethylcasein; read-out: IC50 TG2
T1 construct: purchased Zedira T022
T1 sequence (P21980 1-687): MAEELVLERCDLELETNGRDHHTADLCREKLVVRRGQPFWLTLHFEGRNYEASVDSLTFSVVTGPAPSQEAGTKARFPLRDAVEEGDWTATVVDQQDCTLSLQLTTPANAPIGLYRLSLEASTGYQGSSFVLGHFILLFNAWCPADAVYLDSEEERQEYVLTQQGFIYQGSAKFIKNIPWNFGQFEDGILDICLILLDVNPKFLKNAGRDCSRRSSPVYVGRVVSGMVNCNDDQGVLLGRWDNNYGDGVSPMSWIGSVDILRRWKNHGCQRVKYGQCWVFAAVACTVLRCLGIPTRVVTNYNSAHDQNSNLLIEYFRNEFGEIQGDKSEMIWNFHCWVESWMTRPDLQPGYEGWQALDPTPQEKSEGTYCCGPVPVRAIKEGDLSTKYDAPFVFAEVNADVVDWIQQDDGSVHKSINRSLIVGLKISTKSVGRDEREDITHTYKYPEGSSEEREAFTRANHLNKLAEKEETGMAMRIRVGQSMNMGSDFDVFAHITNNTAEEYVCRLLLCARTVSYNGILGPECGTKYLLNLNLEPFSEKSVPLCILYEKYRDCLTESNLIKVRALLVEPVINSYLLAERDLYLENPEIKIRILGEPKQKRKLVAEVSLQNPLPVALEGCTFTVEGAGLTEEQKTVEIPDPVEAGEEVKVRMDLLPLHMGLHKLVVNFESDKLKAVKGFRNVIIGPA
Method in brief: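 IC50 is the inhibitor level that blocks 50% of initial activity. Activity is the fluorescence slope (λex 330, λem 500 nm) between 20 and 30 min of a 37 °C run, relative to a 2% DMSO control. The enzyme is recombinant human tissue transglutaminase, 10 nM final, tested against a 1:2 inhibitor dilution series in a pH 8.0 mix with 10 mM CaCl2, 10 mM glutathione, 16.7 µM dansylcadaverine and 4 µM N,N-dimethylcasein.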

[3] = Caco-2 permeability assay (CacoReady kit); format: in vitro ADME; settings: human, Caco-2, Caco-2 barrier, CacoReady kit; above 1×10^−6 cm/s classified as permeable
Method in brief: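 Compounds are tested on pre-formed Caco-2 barriers supplied as a ready-to-use kit, following the kit protocol, and the Papp value is derived to estimate intestinal absorption.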

Structure (SMILES)	logD [1]	IC50 [2] [nM]	Papp [3] [×10⁻⁶ cm/s]
CNC(=O)C(=O)CC[C@H](NC(=O)c1ccnnc1)C(=O)Nc1cccn(CC(=O)NC2C3CC4CC(C3)CC2C4)c1=O (stereo partly drawn) [II-113, (S)-N1-(1-(2-(2-adamantylamino)-2-oxoethyl)-2-oxo-1,2-dihydropyridin-3-yl)-N6-methyl-5-oxo-2-(pyridazine-4-carboxamido)hexanediamide]	< 1	40 to 400	< 1
CNC(=O)C(=O)CC[C@H](NC(=O)c1cccnc1)C(=O)Nc1cccn(CC(=O)NC2C3CC4CC(C3)CC2C4)c1=O (stereo partly drawn) [II-111, (S)-N1-(1-(2-(2-adamantylamino)-2-oxoethyl)-2-oxo-1,2-dihydropyridin-3-yl)-N6-methyl-2-(nicotinamido)-5-oxohexanediamide]	1 to 3	< 40	< 1
CNC(=O)C(=O)CC[C@H](NC(=O)c1cncc(C(=O)OC)c1)C(=O)Nc1cccn(CC(=O)NC2C3CC4CC(C3)CC2C4)c1=O (stereo partly drawn) [II-65, (S)-methyl 5-(1-(1-(2-(2-adamantylamino)-2-oxoethyl)-2-oxo-1,2-dihydropyridin-3-ylamino)-6-(methylamino)-1,5,6-trioxohexan-2-ylcarbamoyl)nicotinate]	1 to 3	40 to 400	< 1
CNC(=O)C(=O)CC[C@H](NC(=O)c1oc2ccccc2c1C)C(=O)Nc1cccn(CC(=O)NC2CC3CCC2CC3)c1=O (stereo partly drawn) [II-98, (2S)-N1-(1-(2-(bicyclo[2.2.2]octan-2-ylamino)-2-oxoethyl)-2-oxo-1,2-dihydropyridin-3-yl)-N6-methyl-2-(3-methylbenzofuran-2-carboxamido)-5-oxohexanediamide]	1 to 3	40 to 400	1 to 10
CNC(=O)C(=O)CC[C@H](NC(=O)c1oc2ccccc2c1C)C(=O)Nc1cccn(CC(=O)NCC23CC4CC(CC(C4)C2)C3)c1=O [II-87, (S)-N1-(1-(2-(1-adamantylmethylamino)-2-oxoethyl)-2-oxo-1,2-dihydropyridin-3-yl)-N6-methyl-2-(3-methylbenzofuran-2-carboxamido)-5-oxohexanediamide]	3 to 5	40 to 400	1 to 10
CNC(=O)C(=O)CC[C@H](NC(=O)c1oc2ccccc2c1C)C(=O)Nc1cccn(CC(=O)N(C)C2C3CC4CC(C3)CC2C4)c1=O (stereo partly drawn) [II-67, (S)-N1-(1-(2-(2-adamantyl(methyl)amino)-2-oxoethyl)-2-oxo-1,2-dihydropyridin-3-yl)-N6-methyl-2-(3-methylbenzofuran-2-carboxamido)-5-oxohexanediamide]	3 to 5	400 to 2500	1 to 10
CNC(=O)C(=O)CC[C@H](NC(=O)c1oc2ccccc2c1C)C(=O)Nc1cccn(CC(=O)NC2C3CC4CC2CC(Cl)(C4)C3)c1=O (stereo partly drawn) [II-70, (S)-N1-(1-(2-(5-chloroadamantane-2-amino)-2-oxoethyl)-2-oxo-1,2-dihydropyridin-3-yl)-N6-methyl-2-(3-methylbenzofuran-2-carboxamido)-5-oxohexanediamide]	1 to 3	< 40	1 to 10
CNC(=O)C(=O)CC[C@H](NC(=O)c1cncc([N+](=O)[O-])c1)C(=O)Nc1cccn(CC(=O)NC2C3CC4CC(C3)CC2C4)c1=O (stereo partly drawn) [II-63, (S)-N1-(1-(2-(2-adamantylamino)-2-oxoethyl)-2-oxo-1,2-dihydropyridin-3-yl)-N6-methyl-2-(5-nitronicotinamido)-5-oxohexanediamide]	1 to 3	< 40	< 1

Next, values leading:

logD [1]	IC50 [2] [nM]	Papp [3] [×10⁻⁶ cm/s]	Structure (SMILES)
3 to 5	400 to 2500	1 to 10	CNC(=O)C(=O)CC[C@H](NC(=O)c1cc(C#N)cn1C)C(=O)Nc1cccn(CCCC23CC4CC(CC(C4)C2)C3)c1=O [II-165]
< 1	40 to 400	< 1	CNC(=O)C(=O)CC[C@H](NC(=O)c1cccnn1)C(=O)Nc1cccn(CC(=O)NC2C3CC4CC(C3)CC2C4)c1=O (stereo partly drawn) [II-114, (S)-N1-(1-(2-(2-adamantylamino)-2-oxoethyl)-2-oxo-1,2-dihydropyridin-3-yl)-N6-methyl-5-oxo-2-(pyridazine-3-carboxamido)hexanediamide]
3 to 5	400 to 2500	< 1	O=C(Cn1cccc(NC(=O)[C@H](CCC(=O)C(=O)NC2CCCC2)NC(=O)c2cnc3ccc(OC(F)(F)F)cc3c2O)c1=O)N[C@@H]1C[C@@H]2CC[C@H]1C2 [II-180, (S)-N1-(1-(2-((1S,2R,4R)-bicyclo[2.2.1]heptan-2-ylamino)-2-oxoethyl)-2-oxo-1,2-dihydropyridin-3-yl)-N6-cyclopentyl-2-(4-hydroxy-6-(trifluoromethoxy)quinoline-3-carboxamido)-5-oxohexanediamide]
3 to 5	400 to 2500	1 to 10	CC(C)(C)NC(=O)C(=O)CC[C@H](NC(=O)c1c[nH]c2ccccc12)C(=O)Nc1cccn(CC(=O)NC2C3CC4CC(C3)CC2C4)c1=O (stereo partly drawn) [II-176, (S)-N1-tert-butyl-5-(1H-indole-3-carboxamido)-N6-(1-(2-(2-adamantylamino)-2-oxoethyl)-2-oxo-1,2-dihydropyridin-3-yl)-2-oxohexanediamide]
< 1	< 40	1 to 10	CNC(=O)C(=O)CC[C@H](NC(=O)c1oc2ccccc2c1C)C(=O)Nc1cccn(CC(=O)NC23CCC(C2)C3)c1=O [II-169, (S)-N1-(1-(2-(bicyclo[2.1.1]hexan-1-ylamino)-2-oxoethyl)-2-oxo-1,2-dihydropyridin-3-yl)-N6-methyl-2-(3-methylbenzofuran-2-carboxamido)-5-oxohexanediamide]
< 1	40 to 400	< 1	CNC(=O)C(=O)CC[C@H](NC(=O)c1snnc1C)C(=O)Nc1cccn(CC(=O)N[C@@H]2C[C@H]3CC[C@@H]2C3)c1=O [II-152, (S)-N1-(1-(2-((1R,2R,4S)-bicyclo[2.2.1]heptan-2-ylamino)-2-oxoethyl)-2-oxo-1,2-dihydropyridin-3-yl)-N6-methyl-2-(4-methyl-1,2,3-thiadiazole-5-carboxamido)-5-oxohexanediamide]
< 1	400 to 2500	< 1	CNC(=O)C(=O)CC[C@H](NC(=O)c1cc2ccc(N(C)C)cc2o1)C(=O)Nc1cccn(CC(=O)NC23CC(C2)C3)c1=O [II-190, (S)-N1-(1-(2-(bicyclo[1.1.1]pentan-1-ylamino)-2-oxoethyl)-2-oxo-1,2-dihydropyridin-3-yl)-2-(6-(dimethylamino)benzofuran-2-carboxamido)-N6-methyl-5-oxohexanediamide]
< 1	400 to 2500	< 1	CNC(=O)C(=O)CC[C@H](NC(=O)c1c(I)cnn1C)C(=O)Nc1cccn(CC(=O)NC2C3CC4CC(C3)CC2C4)c1=O (stereo partly drawn) [II-143, (S)-2-(4-iodo-1-methyl-1H-pyrazole-5-carboxamido)-N1-(1-(2-(2-adamantylamino)-2-oxoethyl)-2-oxo-1,2-dihydropyridin-3-yl)-N6-methyl-5-oxohexanediamide]
< 1	400 to 2500	< 1	CNC(=O)C(=O)CC[C@H](NC(=O)c1ccc2c(c1)CCCN2)C(=O)Nc1cccn(CC(=O)NC23CCC(C2)C3)c1=O [II-185, (S)-N1-(1-(2-(bicyclo[2.1.1]hexan-1-ylamino)-2-oxoethyl)-2-oxo-1,2-dihydropyridin-3-yl)-N6-methyl-5-oxo-2-(1,2,3,4-tetrahydroquinoline-6-carboxamido)hexanediamide]
3 to 5	400 to 2500	1 to 10	Cc1cn2c(C(=O)N[C@@H](CCC(=O)C(=O)NC(C)(C)C)C(=O)Nc3cccn(CC(=O)NC4C5CC6CC(C5)CC4C6)c3=O)csc2n1 (stereo partly drawn) [II-177, (S)-N1-tert-butyl-N6-(1-(2-(2-adamantylamino)-2-oxoethyl)-2-oxo-1,2-dihydropyridin-3-yl)-5-(6-methylimidazo[2,1-b]thiazole-3-carboxamido)-2-oxohexanediamide]
< 1	40 to 400	1 to 10	Cc1nc(C(F)(F)F)sc1C(=O)N[C@@H](CCC(=O)C(N)=O)C(=O)Nc1cccn(CC(=O)NC2C3CC4CC(C3)CC2C4)c1=O (stereo partly drawn) [II-126, (S)-N1-(1-(2-(2-adamantylamino)-2-oxoethyl)-2-oxo-1,2-dihydropyridin-3-yl)-2-(4-methyl-2-(trifluoromethyl)thiazole-5-carboxamido)-5-oxohexanediamide]
